According to ChEMBL document CHEMBL5512624, “OSMAC Strategy: A promising way to explore microbial cyclic peptides” (Eur J Med Chem, 2024):
Converted amounts (≈) assume the structure as drawn. Numbered stars: 1 amine (or outer) side, 2 acyl side, 3 side chain; on linkers, the order of the positions; unused ones are H or OH. Square brackets hold non-standard residues; d marks the D form. Peptide text beside a SMILES is read from it. X5 = C=C(N[*:1])c1nc(-c2nc(C(=O)[*:2])ccc2-c2nccs2)co1; X1 = CCC(C)CCCCCCCCCCC[C@H](N[*:1])C(=O)[*:2]; X7 = CC(C)CCCCCCCCCCC[C@H](N[*:1])C(=O)[*:2]; X2 = CCC(C)CCCCCCCCC[C@H](N[*:1])C(=O)[*:2]; X6 = CC(C)CCCCCCCCCC[C@H](N[*:1])C(=O)[*:2]; X8 = CCCCCCCCCCCCCC[C@H](N[*:1])C(=O)[*:2]; Gly(Dodecyl) = CCCCCCCCCCCC[C@H](N)C(=O)O; X3 = C/C=C(\N[*:1])c1nc(C(=O)[*:2])co1; X4 = C=C(N[*:1])c1nc(C(=O)[*:2])c(C)o1; NMeY = CN[C@@H](Cc1ccc(O)cc1)C(=O)O; Val(3-OH) = CC(C)(O)[C@H](N)C(=O)O; Dha = C=C(N)C(=O)O

Experiments:
Aspergillus niger = assay: Antifungal activity against Aspergillus niger assessed as fungal growth inhibition; assay type: functional
Influenza A virus = assay: Antiviral activity against Influenza A virus H9N2 infected in MDCK cells assessed as inhibition of viral replication; assay type: functional, organism-based
Aspergillus fumigatus = assay: Antifungal activity against Aspergillus fumigatus ATCC 46645 assessed as fungal growth inhibition incubated for 24 hrs by CLSI protocol based broth microdilution method; assay type: functional, organism-based; details: ATCC 46645, 24 h
Human alphaherpesvirus 1 = assay: Antiviral activity against HSV-1 infected in African green monkey Vero cells by plaque reduction assay; assay type: functional, organism-based; details: Human alphaherpesvirus 1, Vero
HL-60 = assay: Cytotoxicity against human HL-60 cells assessed as reduction in cell viability incubated for 24 hrs by MTT assay; assay type: functional, cell-based; details: HL-60, 24 h
MCF7 = assay: Cytotoxicity against human MCF7 cells assessed as reduction in cell viability incubated for 24 hrs by MTT assay; assay type: functional, cell-based; details: MCF7, 24 h
SW480 = assay: Cytotoxicity against human SW480 cells assessed as reduction in cell viability incubated for 24 hrs by MTT assay; assay type: functional, cell-based; details: SW480, 24 h
[1] = Inhibition rat liver microsome ACAT; assay type: microsomes
Trypanosoma cruzi = assay: Antitrypanosomal activity against Trypanosoma cruzi amastigote assessed as parasite growth inhibition incubated for 24 hrs by light microscopic analysis; assay type: functional, organism-based
Plasmodium falciparum = assay: Antiplasmodial activity against Plasmodium falciparum 3D7 assessed as reduction in parasite growth incubated for 72 hrs by SYBR Green dye based fluorescence assay; assay type: functional, organism-based; details: 3D7, 72 h

Compound: CCCCCCCCCCCCCC[C@@H]1NC(=O)[C@@H]2CCCN2C(=O)[C@H](CCC(N)=O)NC(=O)[C@H](CC(N)=O)NC(=O)[C@H](CO)NC(=O)[C@H](CC(N)=O)NC(=O)[C@H](Cc2ccc(O)cc2)NC(=O)[C@H](CC(N)=O)NC1=O (cyclo(NQP[X8]NYNS))
- MIC (Aspergillus niger): 3.12 µg/mL (≈ 2.91 µM)

Compound: CCCCCCCCCCCC[C@@H]1NC(=O)[C@@H]2CCCN2C(=O)[C@H](CCC(N)=O)NC(=O)[C@H](CC(N)=O)NC(=O)[C@H](CO)NC(=O)[C@H](CC(N)=O)NC(=O)[C@H](Cc2ccc(O)cc2)NC(=O)[C@H](CC(N)=O)NC1=O (cyclo(NQP[Gly(Dodecyl)]NYNS))
- MIC (Aspergillus niger): 3.12 µg/mL (≈ 2.99 µM)

Compound: C=C(NC(=O)C(=C)NC(=O)c1ccc(-c2nccs2)c(-c2coc(C(=C)NC(=O)C(=C)NC(=O)c3nc(C(=C)NC(=O)[C@@H](NC(=O)C(=C)NC(=O)c4coc(/C(=C/C)NC(=O)[C@@H](NC(C)=O)[C@@H](C)O)n4)C(C)C)oc3C)n2)n1)C(N)=O (Ac-T[X3][Dha]V[X4][Dha][X5][Dha][Dha]-NH2)
- IC50 (Influenza A virus): 18.3 µM

Compound: CCCCCCC/C=C/C=C/C=C/[C@H](C[C@H](O)C[C@H]1NC(=O)[C@H](C[C@H](O)CO)NC(=O)[C@@H](CC(N)=O)NC(=O)[C@H](CC(N)=O)NC(=O)[C@H](C)CNC(=O)[C@H]1O)OC
- IC50 (Aspergillus fumigatus): 4 µM

Compound: CCCCCCC/C=C/C=C/C=C/[C@H](C[C@H](O)C[C@@H]1CC(=O)NC[C@@H](C)C(=O)N[C@@H](CC(N)=O)C(=O)N[C@H](CC(N)=O)C(=O)N[C@@H](C[C@H](O)CO)C(=O)N1)OC
- IC50 (Aspergillus fumigatus): 4 µM

Compound: C=C(NC(=O)c1nc(C(=C)NC(=O)[C@@H](NC(=O)C(=C)NC(=O)c2coc(/C(=C/C)NC(=O)[C@@H](NC(C)=O)[C@@H](C)O)n2)C(C)C)oc1C)C(=O)NC(=C)c1nc(-c2nc(C(N)=O)ccc2-c2nccs2)co1
- IC50 (Influenza A virus): 28.7 µM

Compound: COc1ccc(C[C@@H]2NC(=O)[C@@H]3CCCN3C(=O)[C@H](C(C)C)NC(=O)[C@H](Cc3ccc(O)cc3)N(C)C(=O)[C@H](Cc3ccc(OC)cc3)NC2=O)cc1 (cyclo([NMeY]VPY(Me)Y(Me)))
- IC50 (Human alphaherpesvirus 1): 9.5 µM

Compound: CC[C@H](C)[C@@H]1NC(=O)[C@@H]2[C@H](C)CCN2C(=O)[C@H](C[C@H](O)CCl)OC(=O)CCNC(=O)[C@@H](C)N(C)C(=O)[C@H]([C@@H](C)CC)N(C)C1=O
- IC50 (HL-60): 0.149 µM
- IC50 (MCF7): 0.079 µM
- IC50 (SW480): 0.107 µM

Compound: C=C(NC(=O)c1ccc(-c2nccs2)c(-c2coc(C(=C)NC(=O)C(=C)NC(=O)c3nc(C(=C)NC(=O)[C@@H](NC(=O)C(=C)NC(=O)c4coc(/C(=C/C)NC(=O)[C@@H](NC(C)=O)[C@@H](C)O)n4)C(C)(C)O)oc3C)n2)n1)C(N)=O (Ac-T[X3][Dha][Val(3-OH)][X4][Dha][X5][Dha]-NH2)
- IC50 (Influenza A virus): 7.3 µM

Compound: C=C(NC(=O)C(=C)NC(=O)c1ccc(-c2nccs2)c(-c2coc(C(=C)NC(=O)C(=C)NC(=O)c3nc(C(=C)NC(=O)[C@@H](NC(=O)C(=C)NC(=O)c4coc(/C(=C/C)NC(=O)[C@@H](NC(C)=O)[C@@H](C)O)n4)C(C)(C)O)oc3C)n2)n1)C(N)=O (Ac-T[X3][Dha][Val(3-OH)][X4][Dha][X5][Dha][Dha]-NH2)
- IC50 (Influenza A virus): 15.3 µM

Compound: CCCCCCC/C=C/C=C/C=C/[C@H](C[C@H](O)C[C@H]1NC(=O)[C@H](C[C@H](O)CO)NC(=O)[C@@H](CC(N)=O)NC(=O)[C@H](C[C@H](O)CO)NC(=O)[C@H](C)CNC(=O)[C@H]1O)OC
- IC50 (Aspergillus fumigatus): 4 µM

Compound: CCC(C)CCCCCCCCC[C@@H]1NC(=O)[C@@H]2CCCN2C(=O)[C@H](CCC(N)=O)NC(=O)[C@H](CC(N)=O)NC(=O)[C@H](CO)NC(=O)[C@H](CC(N)=O)NC(=O)[C@H](Cc2ccc(O)cc2)NC(=O)[C@H](CC(N)=O)NC1=O (some centres not stated) (cyclo(NQP[X2]NYNS))
- MIC (Aspergillus niger): 3.12 µg/mL (≈ 2.95 µM)

Compound: CCCCCCC/C=C/C=C/C=C/[C@H](C[C@H](O)C[C@H]1NC(=O)[C@H](C[C@H](O)C(C)O)NC(=O)[C@@H](CC(N)=O)NC(=O)[C@H](CC(N)=O)NC(=O)[C@H](C)CNC(=O)[C@H]1O)OC (some centres not stated)
- IC50 (Aspergillus fumigatus): 4 µM

Compound: CC(C)CCCCCCCCCCC[C@@H]1NC(=O)[C@@H]2CCCN2C(=O)[C@H](CCC(N)=O)NC(=O)[C@H](CC(N)=O)NC(=O)[C@H](CO)NC(=O)[C@H](CC(N)=O)NC(=O)[C@H](Cc2ccc(O)cc2)NC(=O)[C@H](CC(N)=O)NC1=O (cyclo(NQP[X7]NYNS))
- MIC (Aspergillus niger): 3.12 µg/mL (≈ 2.91 µM)

Compound: CCC(C)CCCCCCCCCCC[C@@H]1NC(=O)[C@@H]2CCCN2C(=O)[C@H](CCC(N)=O)NC(=O)[C@H](CC(N)=O)NC(=O)[C@H](CO)NC(=O)[C@H](CC(N)=O)NC(=O)[C@H](Cc2ccc(O)cc2)NC(=O)[C@H](CC(N)=O)NC1=O (some centres not stated) (cyclo(NQP[X1]NYNS))
- MIC (Aspergillus niger): 3.12 µg/mL (≈ 2.87 µM)

Compound: CC(C)CCCCCCCCCC[C@@H]1NC(=O)[C@@H]2CCCN2C(=O)[C@H](CCC(N)=O)NC(=O)[C@H](CC(N)=O)NC(=O)[C@H](CO)NC(=O)[C@H](CC(N)=O)NC(=O)[C@H](Cc2ccc(O)cc2)NC(=O)[C@H](CC(N)=O)NC1=O (cyclo(NQP[X6]NYNS))
- MIC (Aspergillus niger): 3.12 µg/mL (≈ 2.95 µM)

Compound: CCCCCCC/C=C/C=C/C=C/[C@H](C[C@H](O)C[C@@H]1CC(=O)NC[C@@H](C)C(=O)N[C@@H](C[C@H](O)CO)C(=O)N[C@H](CC(N)=O)C(=O)N[C@@H](C[C@H](O)CO)C(=O)N1)OC
- IC50 (Aspergillus fumigatus): 4 µM

Compound: CC(C)[C@H]1OC(=O)[C@H](Cc2ccccc2)N(C)C(=O)[C@@H](C(C)C)OC(=O)[C@H](Cc2ccccc2)N(C)C(=O)[C@@H](C(C)C)OC(=O)[C@H](Cc2ccccc2)N(C)C1=O
- IC50 [1]: 3 µM

Compound: COc1ccc2c3c([nH]c2c1)[C@H](C=C(C)C)N1C(=O)[C@@H]2CCCN2C(=O)[C@@H]1C3 [FUMITREMORGIN]
- IC50 (Trypanosoma cruzi): 9.6 µM
- IC50 (Plasmodium falciparum): 2.3 µM
